This passage reports T/C results from PubChem BioAssay AID330 (DTP/NCI, 2004).

Values joined by “and” are separate entries in the source; they are usually repeats but may differ in a detail not shown here. Equal entries are not always repeated. Toxic doses and inconclusive results are not listed. Bridge positions count the residues as written; N and C are the ends. Peptide text beside a SMILES is read from it.

In this test the test system is P388 leukemia ip, CD2F1 mice, survival T/C. Kind of test: NCI In Vivo Anticancer Drug Screen. Data for tumor model P388 Leukemia (intraperitoneal) in CD2F1 (CDF1) mice. As to conditions: endpoint: median survival time, higher = longer survival. An outline of the steps:
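Mice carrying the transplanted tumor received test compound or vehicle. Survival was recorded in each group, and the value is the treated-group measurement divided by that of the vehicle-treated control group.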

Setting [1] is: dose: 50.0 mg/kg/injection, schedule: Q01DX009 (ip), vehicle: saline with Tween-80.
The mark [2] stands for this setting: dose: 100.0 mg/kg/injection, schedule: Q01DX009 (ip), vehicle: saline with Tween-80.
The mark [3] stands for this setting: dose: 400.0 mg/kg/injection, schedule: Q01DX009 (ip), vehicle: saline with Tween-80.
Where [4] appears, read: dose: 25.0 mg/kg/injection, schedule: Q01DX009 (ip), vehicle: saline.
Where [5] appears, read: dose: 50.0 mg/kg/injection, schedule: Q01DX009 (ip), vehicle: saline.
Where [6] appears, read: dose: 100.0 mg/kg/injection, schedule: Q01DX009 (ip), vehicle: saline.
Setting [7] is: dose: 200.0 mg/kg/injection, schedule: Q01DX009 (ip), vehicle: saline.
[8] abbreviates: dose: 200.0 mg/kg/injection, schedule: Q01DX009 (ip), vehicle: saline with Tween-80.

As for `Oc1[nH]c2ccccc2c1N=NC1=NCCN1`, the T/C (dose: 60.0 mg/kg/injection, schedule: Q01DX005 (ip), vehicle: saline) is 101 % of control; the T/C (dose: 120.0 mg/kg/injection, schedule: Q01DX005 (ip), vehicle: saline) is 104 % of control; the T/C (dose: 240.0 mg/kg/injection, schedule: Q01DX005 (ip), vehicle: saline) was 87 % of control.

`NCCCn1[nH]c(=O)c2ccncc2c1=O`: the T/C reads like this: (dose: 100.0 mg/kg/injection, schedule: Q04DX002 (ip), vehicle: saline) 97 % of control; (dose: 200.0 mg/kg/injection, schedule: Q04DX002 (ip), vehicle: saline) 97 % of control; (dose: 400.0 mg/kg/injection, schedule: Q04DX002 (ip), vehicle: saline) 95 % of control.

In the case of `Oc1ccc(Nc2c3ccccc3nc3c2ccc2ccccc23)cc1CN(CCCl)CCCl`, the T/C was 194 % of control (dose: 7.2 mg/kg/injection, schedule: Q04DX003 (ip), vehicle: saline); 205 % of control (dose: 11.0 mg/kg/injection, schedule: Q04DX003 (ip), vehicle: saline); 161 % of control (dose: 16.0 mg/kg/injection, schedule: Q04DX003 (ip), vehicle: saline).

Turning to `Cc1cc(O)c2c(c1O)C(=O)c1cc(O)cc(O)c1C2=O`, the T/C reads like this: (dose: 6.25 mg/kg/injection, schedule: Q01DX005 (ip), vehicle: saline + alcohol) 104 % of control; (dose: 12.5 mg/kg/injection, schedule: Q01DX005 (ip), vehicle: saline + alcohol) 101 % of control; (dose: 25.0 mg/kg/injection, schedule: Q01DX005 (ip), vehicle: saline + alcohol) 99 % of control.

Turning to `CC(=O)N(C)O`, the T/C reads like this: under setting [1], 100 % of control and 104 % of control; under setting [2], 105 % of control and 110 % of control; (dose: 200.0 mg/kg/injection, schedule: Q01DX005 (ip), vehicle: saline with Tween-80) 121 % of control; under setting [3], 160 % of control.

Consider `Cc1cc(C)cc(N=Cc2ccc(C=Nc3cc(C)cc(C)c3)cc2)c1`, for which the T/C is 92 % of control (dose: 50.0 mg/kg/injection, schedule: Q01DX009 (ip), vehicle: Klucel (hydroxypropylcellulose) (HPC)); 95 % of control (dose: 100.0 mg/kg/injection, schedule: Q01DX009 (ip), vehicle: Klucel (hydroxypropylcellulose) (HPC)); 100 % of control (dose: 200.0 mg/kg/injection, schedule: Q01DX009 (ip), vehicle: Klucel (hydroxypropylcellulose) (HPC)).

For the compound `CCCCCCCCCCCCCCCCCC[N+]1(CC)CCOCC1`, the T/C is 87 % of control and 90 % of control (dose: 0.78 mg/kg/injection, schedule: Q01DX009 (ip), vehicle: saline); 106 % of control and 87 % of control and 88 % of control (dose: 1.56 mg/kg/injection, schedule: Q01DX009 (ip), vehicle: saline); 111 % of control and 87 % of control and 88 % of control (dose: 3.12 mg/kg/injection, schedule: Q01DX009 (ip), vehicle: saline); 86 % of control under setting [4]; 96 % of control under setting [5]; 88 % of control under setting [6]. The T/C under setting [7] was 100 % of control.

Regarding `Cc1cc(N=Nc2ccncc2C)ccc1N`, the T/C by setting is: (dose: 6.25 mg/kg/injection, schedule: Q01DX009 (ip), vehicle: saline with Tween-80) 106 % of control; (dose: 12.5 mg/kg/injection, schedule: Q01DX009 (ip), vehicle: saline with Tween-80) 104 % of control; (dose: 25.0 mg/kg/injection, schedule: Q01DX009 (ip), vehicle: saline with Tween-80) 100 % of control; under setting [1], 92 % of control.

In the case of `COC(=O)NC1C(=O)OC2C1CC1OC12` (stereo unspecified), the T/C is 101 % of control (dose: 60.0 mg/kg/injection, schedule: Q01DX005 (ip), vehicle: saline with Tween-80); 100 % of control (dose: 120.0 mg/kg/injection, schedule: Q01DX005 (ip), vehicle: saline with Tween-80); 101 % of control (dose: 240.0 mg/kg/injection, schedule: Q01DX005 (ip), vehicle: saline with Tween-80).

For `CC1=NN(c2cccc(S(=O)(=O)O)c2)C(=O)C1`, the T/C was 100 % of control (dose: 25.0 mg/kg/injection, schedule: Q01DX009 (ip), vehicle: saline sonified); 100 % of control (dose: 50.0 mg/kg/injection, schedule: Q01DX009 (ip), vehicle: saline sonified); 89 % of control under setting [5]; 100 % of control (dose: 100.0 mg/kg/injection, schedule: Q01DX009 (ip), vehicle: saline sonified); 95 % of control under setting [6]; 96 % of control under setting [7].

Regarding `CCC(C)C1NC(=O)C(CC(C)C)NC(=O)C(C(C)C)NC(=O)C2CSSCC(NC1=O)C(=O)N2` (stereo unspecified) (cyclo(CCVLI); disulfide 1-2; configuration not given here), the T/C reads like this: (dose: 31.25 micrograms/kg/injection, schedule: Q01DX009 (ip), vehicle: Klucel (hydroxypropylcellulose) (HPC)) 106 % of control; (dose: 62.5 micrograms/kg/injection, schedule: Q01DX009 (ip), vehicle: Klucel (hydroxypropylcellulose) (HPC)) 100 % of control; (dose: 125.0 micrograms/kg/injection, schedule: Q01DX009 (ip), vehicle: Klucel (hydroxypropylcellulose) (HPC)) 94 % of control; (dose: 250.0 micrograms/kg/injection, schedule: Q01DX009 (ip), vehicle: Klucel (hydroxypropylcellulose) (HPC)) 97 % of control; (dose: 500.0 micrograms/kg/injection, schedule: Q01DX009 (ip), vehicle: Klucel (hydroxypropylcellulose) (HPC)) 99 % of control; (dose: 1000.0 micrograms/kg/injection, schedule: Q01DX009 (ip), vehicle: Klucel (hydroxypropylcellulose) (HPC)) 97 % of control.

In the case of `CC(=O)Nc1cc(C)ccc1O`, the T/C was 95 % of control under setting [2], 100 % of control under setting [8] and 95 % of control under setting [3].

Regarding `CC(=O)N/C(=C/c1ccccc1)C(=O)N1CCCC1C(=O)O` (stereo unspecified), the T/C was 105 % of control (dose: 12.5 mg/kg/injection, schedule: Q01DX009 (ip), vehicle: saline); 104 % of control under setting [4]; 96 % of control under setting [5].

Take `CCC1(C(=O)Sc2ccccc2)OC1c1ccccc1` (stereo unspecified): the T/C (dose: 100.0 mg/kg/injection, schedule: Q01DX001 (ip), vehicle: Klucel (hydroxypropylcellulose) (HPC)) is 89 % of control; the T/C (dose: 200.0 mg/kg/injection, schedule: Q01DX001 (ip), vehicle: Klucel (hydroxypropylcellulose) (HPC)) is 90 % of control; the T/C (dose: 400.0 mg/kg/injection, schedule: Q01DX001 (ip), vehicle: Klucel (hydroxypropylcellulose) (HPC)) was 90 % of control.

Turning to `O=C(OC(c1ccccc1)c1ccccc1)c1ccc([N+](=O)[O-])cc1`, the T/C is 101 % of control under setting [1], 106 % of control under setting [2] and 108 % of control under setting [8].

Take `COc1cc2c(cc1OC)C(Cc1ccsc1)NCC2` (stereo unspecified): the T/C is, setting by setting: (dose: 50.0 mg/kg/injection, schedule: Q04DX002 (ip), vehicle: Klucel (hydroxypropylcellulose) (HPC)) 102 % of control; (dose: 100.0 mg/kg/injection, schedule: Q04DX002 (ip), vehicle: Klucel (hydroxypropylcellulose) (HPC)) 100 % of control.

In the case of `C[CH2][Ge]([CH2]C)[CH2]/C=C\[CH2][Ge]([CH2]C)[CH2]C`, the T/C by setting is: under setting [1], 94 % of control; under setting [2], 117 % of control.

In the case of `CCC(=O)c1ccc(NC(=O)Nc2ncccn2)cc1`, the T/C is 86 % of control (dose: 60.0 mg/kg/injection, schedule: Q01DX005 (ip), vehicle: Klucel (hydroxypropylcellulose) (HPC)); 89 % of control (dose: 120.0 mg/kg/injection, schedule: Q01DX005 (ip), vehicle: Klucel (hydroxypropylcellulose) (HPC)); 95 % of control (dose: 240.0 mg/kg/injection, schedule: Q01DX005 (ip), vehicle: Klucel (hydroxypropylcellulose) (HPC)).

Turning to `O=C(CCSSc1ccccn1)ON1C(=O)CCC1=O`, the T/C is, setting by setting: (dose: 100.0 mg/kg/injection, schedule: Q01DX001 (ip), vehicle: saline) 102 % of control; (dose: 200.0 mg/kg/injection, schedule: Q01DX001 (ip), vehicle: saline) 107 % of control; (dose: 400.0 mg/kg/injection, schedule: Q01DX001 (ip), vehicle: saline) 100 % of control.

Turning to `CCOC(=O)CNC1CC(O[C@H]2C[C@](O)(C(C)=O)Cc3c(O)c4c(c(O)c32)C(=O)c2c(OC)cccc2C4=O)OC(C)C1O` (stereo partly specified), the T/C is, setting by setting: (dose: 25.0 mg/kg/injection, schedule: Q04DX003 (ip), vehicle: Klucel (hydroxypropylcellulose) (HPC)) 103 % of control; (dose: 50.0 mg/kg/injection, schedule: Q04DX003 (ip), vehicle: Klucel (hydroxypropylcellulose) (HPC)) 110 % of control; (dose: 100.0 mg/kg/injection, schedule: Q04DX003 (ip), vehicle: Klucel (hydroxypropylcellulose) (HPC)) 109 % of control; (dose: 200.0 mg/kg/injection, schedule: Q04DX003 (ip), vehicle: Klucel (hydroxypropylcellulose) (HPC)) 100 % of control.
